Key:
[1] = biological target: PKR(R510Q) (Homo sapiens, UniProt P30613, R510Q); experiment: Luminescence Biochemical Assay (Kinase Glo Plus), PKR R510Q mutant; conditions: without FBP; for activation at 1.54 µM: 1.54 μM compound, read-out: AC50 LUM KGP woFBP % Fold@1.54 μM mean; for AC50: read-out: AC50 LUM KGP woFBP AC50 μM gmean; for Emax: read-out: AC50 LUM KGP woFBP MAX % FOLD mean
Method: (§1) In some embodiments, a PKR Activating Compound can have: (1) an AC50 value of less than 0.1 μM (e.g., compounds with AC50 values of “+++” in Table 13), 0.1-1.0 μM (e.g., compounds with AC50 values of “++” in Table 13), or 1.01-40 μM (e.g., compounds with AC50 values of “+” in Table 13); (2) a MAX % Fold of 75%-250%, 250-500%, or 75%-500%; and/or (3) a % Fold@1.54 μM of 75%-250%, 250-500%, or 75%-500%. In some embodiments, a PKR Activating Compound has (1) an AC50 value of less than 1.0 μM; (2) a MAX % Fold of 75%-500%; and/or (3) a % Fold@1.54 μM of 75%-500%.
(§2) The phosphorylation of Adenosine-5′-diphosphate (ADP) by various mutants of PKR was determined by the Kinase Glo Plus Assay (Promega) in the presence or absence of FBP [D-Fructose-1,6-diphosphate; BOC Sciences, CAS: 81028-91-3] as follows. Unless otherwise indicated, all reagents were purchased from Sigma-Aldrich. All reagents were prepared in buffer containing 50 mM Tris-HCl, 100 mM KCl, 5 mM MgCl2, and 0.01% Triton X100, 0.03% BSA, and 1 mM DTT. Enzyme and PEP [Phospho(enol) pyruvic acid] were added at 2× to all wells of an assay-ready plate containing serial dilutions of test compounds or DMSO vehicle. Final enzyme concentrations for PKR(wt), PKR(R510Q), and PKR(G332S) were 0.8 nM, 0.8 nM, and 10 nM respectively. Final PEP concentration was 100 μM. The Enzyme/PEP mixture was incubated with compounds for 30 minutes at RT before the assay was initiated with the addition of 2×ADP [Adenosine-5′-diphosphate] and KinaseGloPlus. Final concentration of ADP was 100 μM. […] For assays containing FBP, that reagent is added at 30 μM upon reaction initiation. Reactions were allowed to progress for 45 minutes at RT until luminescence was recorded by the BMG PHERAstar FS Multilabel Reader. All compounds were tested in triplicate at concentrations ranging from 42.5 μM to 2.2 nM in 0.83% DMSO.
(§3) Luminescence values were converted to % Fold increase by normalizing to the average of the DMSO control and multiplying by 100. Max, min, slope and AC50 were determined by the standard four parameter fit algorithm of ActivityBase XE Runner. Compounds were evaluated with three parameters—AC50, MAX % Fold, and % Fold@1.54 μM (FIG. 1). The AC50 value for a compound is the concentration (μM) corresponding to the midway between the maximum and minimum values of the four parameter logistic curve fit (i.e., at which the % fold increase along the four parameter logistic curve fit is halfway between MAX % Fold and MIN % Fold (% Fold Midpoint)), MAX % Fold is the highest fold increase observed at any concentration of compound, and % Fold@1.54 μM is the fold increase at a compound concentration of 1.54 μM. The parameter % Fold@1.54 μM was selected to capture elements of both the AC50 and MAX % Fold and to provide a ranking based on both potency and effect. The compound concentration of 1.54 μM was chosen as one that can optimally differentiate the set of compounds based on the range of activities observed.
(§4) As set forth in Table 13 below, AC50 values (columns A, D, G) are defined as follows: ≤0.1 μM (+++); >0.1 μM and ≤1.0 μM (++); >1.0 μM and ≤40 μM (+); >40 μM (0). Max % FOLD values (columns B, E, H) are defined as follows: ≤75% (+); >75% and ≤250% (++); >250% and ≤500% (+++). % Fold@1.54 μM values (columns C, F, J) are defined as follows: ≤75% (+); >75% and ≤250% (++); >250% and ≤50000 (+++).

[2] = biological target: PKR(wt) (Homo sapiens, UniProt P30613); experiment: Luminescence Biochemical Assay (Kinase Glo Plus), wild type PKR; conditions: without FBP; for activation at 1.54 µM: 1.54 μM compound, read-out: AC50 LUM KGP woFBP % Fold@1.54 μM mean; for AC50: read-out: AC50 LUM KGP woFBP AC50 μM gmean; for Emax: read-out: AC50 LUM KGP woFBP MAX % FOLD mean
Method: as §1, §2, §3, §4

Sequence of PKR(R510Q) (P30613 whole entry R510Q): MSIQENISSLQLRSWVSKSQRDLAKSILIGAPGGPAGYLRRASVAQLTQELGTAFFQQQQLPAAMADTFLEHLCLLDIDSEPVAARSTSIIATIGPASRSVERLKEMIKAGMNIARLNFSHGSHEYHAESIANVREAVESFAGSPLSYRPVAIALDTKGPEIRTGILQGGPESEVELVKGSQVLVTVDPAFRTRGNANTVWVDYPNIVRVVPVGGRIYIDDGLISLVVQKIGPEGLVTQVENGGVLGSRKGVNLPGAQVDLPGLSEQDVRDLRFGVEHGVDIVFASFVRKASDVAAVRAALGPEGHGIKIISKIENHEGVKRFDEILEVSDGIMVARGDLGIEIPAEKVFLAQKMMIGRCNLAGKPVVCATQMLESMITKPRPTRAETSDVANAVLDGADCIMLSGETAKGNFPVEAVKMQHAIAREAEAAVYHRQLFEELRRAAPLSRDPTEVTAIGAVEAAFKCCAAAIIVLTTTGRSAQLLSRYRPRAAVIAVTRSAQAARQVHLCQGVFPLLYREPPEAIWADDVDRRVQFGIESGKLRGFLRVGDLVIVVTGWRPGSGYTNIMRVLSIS
Sequence of PKR(wt) (P30613 whole entry): as the sequence (P30613 whole entry R510Q) above, with Q510R counted along it

activation at 1.54 µM [1] [%]	AC50 [1] [µM]	Emax [1] [%]	activation at 1.54 µM [2] [%]	AC50 [2] [µM]	Emax [2] [%]	Compound
75 to 250	1 to 40	250 to 500	75 to 250	0.1 to 1	75 to 250	O=C([C@H](O)c1ccccc1)N1CC2=C(C1)CN(S(=O)(=O)c1ccc(Cl)cc1)C2 [Example 18-10, (2R)-1-[5-(4-chlorobenzenesulfonyl)-1H,2H,3H,4H,5H,6H-pyrrolo[3,4-c]pyrrol-2-yl]-2-hydroxy-2-phenylethan-1-one]
75 to 250	1 to 40	250 to 500	75 to 250	0.1 to 1	75 to 250	O=C([C@H](O)c1ccccc1)N1CC2=C(C1)CN(S(=O)(=O)c1ccc(C(F)(F)F)cc1)C2 [Example 18-11, (2R)-2-hydroxy-2-phenyl-1-{5-[4-(trifluoromethyl)benzene-sulfonyl]-1H,2H,3H,4H,5H,6H-pyrrolo[3,4-c]pyrrol-2-yl}ethan-1-one]
75 to 250	1 to 40	75 to 250	75 to 250	1 to 40	75 to 250	O=C([C@H](O)c1ccccc1)N1CC2=C(C1)CN(S(=O)(=O)c1ccc(C(F)(F)F)nc1)C2 [Example 18-14, (2R)-2-hydroxy-2-phenyl-1-(5-{[6-(trifluoromethyl)pyridin-3-yl]sulfonyl}-1H,2H,3H,4H,5H,6H-pyrrolo[3,4-c]pyrrol-2-yl)ethan-1-one]
–	–	–	75 to 250	1 to 40	75 to 250	O=C(c1ccccn1)N1CC2=C(C1)CN(S(=O)(=O)c1ccc3occc3c1)C2 [Example 18-83, 2-[5-(1-Benzofuran-5-sulfonyl)-1H,2H,3H,4H,5H,6H-pyrrolo[3,4-c]pyrrole-2-carbonyl]pyridine]
–	–	–	75 to 250	1 to 40	75 to 250	Cc1cc(C(=O)N2CC3=C(C2)CN(S(=O)(=O)c2ccc4occc4c2)C3)nn1C [Example 18-84, 3-[5-(1-Benzofuran-5-sulfonyl)-1H,2H,3H,4H,5H,6H-pyrrolo[3,4-c]pyrrole-2-carbonyl]-1,5-dimethyl-1H-pyrazole]
–	–	–	75 to 250	1 to 40	75 to 250	Cc1nc(C)c(C(=O)N2CC3=C(C2)CN(S(=O)(=O)c2ccc4occc4c2)C3)s1 [Example 18-85, 5-[5-(1-Benzofuran-5-sulfonyl)-1H,2H,3H,4H,5H,6H-pyrrolo[3,4-c]pyrrole-2-carbonyl]-2,4-dimethyl-1,3-thiazole]
–	–	–	75 to 250	1 to 40	75 to 250	O=C(c1cnc(C(F)(F)F)nc1)N1CC2=C(C1)CN(S(=O)(=O)c1ccc3occc3c1)C2 [Example 18-86, 5-[5-(1-Benzofuran-5-sulfonyl)-1H,2H,3H,4H,5H,6H-pyrrolo[3,4-c]pyrrole-2-carbonyl]-2-(trifluoromethyl)pyrimidine]
75 to 250	1 to 40	75 to 250	–	–	–	C[C@@H](C(=O)N1CC2=C(C1)CN(S(=O)(=O)c1ccc(Cl)s1)C2)c1ccccc1 [Example 19-1, (2R)-1-{5-[(5-chlorothiophen-2-yl)sulfonyl]-1H,2H,3H,4H,5H,6H-pyrrolo[3,4-c]pyrrol-2-yl}-2-phenylpropan-1-one]
75 to 250	1 to 40	75 to 250	–	–	–	Cc1nn(C)c(Cl)c1S(=O)(=O)N1CC2=C(CN(C(=O)[C@H](C)c3ccccc3)C2)C1 [Example 19-2, (2R)-1-{5-[(5-chloro-1,3-dimethyl-1H-pyrazol-4-yl)sulfonyl]-1H,2H,3H,4H,5H,6H-pyrrolo[3,4-c]pyrrol-2-yl}-2-phenylpropan-1-one]
–	–	–	75 to 250	0.1 to 1	250 to 500	COc1ccc(CNC(=O)N2CC3=C(C2)CN(S(=O)(=O)c2cccnc2)C3)cc1 [Example 20-2, N-[(4-methoxyphenyl)methyl]-5-(pyridine-3-sulfonyl)-1H,2H,3H,4H,5H,6H-pyrrolo[3,4-c]pyrrole-2-carboxamide]
250 to 50000	0.1 to 1	250 to 500	–	–	–	COc1ccc(CNC(=O)N2CC3=C(C2)CN(S(=O)(=O)c2cccc(F)c2)C3)cc1 [Example 20-7, 5-(3-Fluorobenzenesulfonyl)-N-[(4-methoxyphenyl)methyl]-1H,2H,3H,4H,5H,6H-pyrrolo[3,4-c]pyrrole-2-carboxamide]
75 to 250	1 to 40	75 to 250	–	–	–	COc1ccc(CNC(=O)N2CC3=C(C2)CN(S(=O)(=O)c2ccc(OC)c(OC)c2)C3)cc1 [Example 20-31, 5-(3,4-Dimethoxybenzenesulfonyl)-N-[(4-methoxyphenyl)methyl]-1H,2H,3H,4H,5H,6H-pyrrolo[3,4-c]pyrrole-2-carboxamide]
–	–	–	250 to 50000	≤ 0.1	250 to 500	O=C(NCc1ccco1)N1CC2=C(C1)CN(S(=O)(=O)c1ccc3ncsc3c1)C2 [Example 21-1, 5-(Benzo[d]thiazol-6-ylsulfonyl)-N-(furan-2-ylmethyl)-3,4,5,6-tetrahydropyrrolo[3,4-c]pyrrole-2(1H)-carboxamide]
–	–	–	250 to 50000	≤ 0.1	250 to 500	O=C(NCc1ccco1)N1CC2=C(C1)CN(S(=O)(=O)c1ccc(OC(F)F)cc1)C2 [Example 21-2, 5-[4-(Difluoromethoxy)benzenesulfonyl]-N-(furan-2-ylmethyl)-1H,2H,3H,4H,5H,6H-pyrrolo[3,4-c]pyrrole-2-carboxamide]
–	–	–	75 to 250	1 to 40	250 to 500	Cc1ccc(C(C)NC(=O)N2CC3=C(C2)CN(S(=O)(=O)c2ccc(OC(F)F)cc2)C3)o1 (stereo not drawn) [Example 21-3, 5-[4-(Difluoromethoxy)benzenesulfonyl]-N-[1-(5-methylfuran-2-yl)ethyl]-1H,2H,3H,4H,5H,6H-pyrrolo[3,4-c]pyrrole-2-carboxamide]
–	–	–	75 to 250	1 to 40	250 to 500	Cc1cc(C(C)NC(=O)N2CC3=C(C2)CN(S(=O)(=O)c2ccc(OC(F)F)cc2)C3)c(C)o1 (stereo not drawn) [Example 21-4, 5-[4-(Difluoromethoxy)benzenesulfonyl]-N-[1-(2,5-dimethylfuran-3-yl)ethyl]-1H,2H,3H,4H,5H,6H-pyrrolo[3,4-c]pyrrole-2-carboxamide]
–	–	–	75 to 250	1 to 40	250 to 500	Cc1ccc(C(C)NC(=O)N2CC3=C(C2)CN(S(=O)(=O)c2ccc(OC(F)F)cc2)C3)s1 (stereo not drawn) [Example 21-7, 5-[4-(Difluoromethoxy)benzenesulfonyl]-N-[1-(5-methylthiophen-2-yl)ethyl]-1H,2H,3H,4H,5H,6H-pyrrolo[3,4-c]pyrrole-2-carboxamide]
–	–	–	250 to 50000	0.1 to 1	250 to 500	O=C(OCc1cccc(F)c1)N1CC2=C(C1)CN(S(=O)(=O)c1ccc3occc3c1)C2 [Example 22-6, (3-Fluorophenyl)methyl 5-(1-benzofuran-5-sulfonyl)-1H,2H,3H,4H,5H,6H-pyrrolo[3,4-c]pyrrole-2-carboxylate]
–	–	–	250 to 50000	0.1 to 1	250 to 500	O=C(OCc1cccnc1)N1CC2=C(C1)CN(S(=O)(=O)c1ccc3occc3c1)C2 [Example 22-7, Pyridin-3-ylmethyl 5-(1-benzofuran-5-sulfonyl)-1H,2H,3H,4H,5H,6H-pyrrolo[3,4-c]pyrrole-2-carboxylate]
